Results as given in the kinase profiling compilation of Christmann-Franck et al. (2016).
Values joined by “and” are separate entries in the source; they are usually repeats but may differ in a detail not shown here. Equal entries are not always repeated.

Key:
Experiment in all cases: KINOMEscan competition binding
Settings in all cases: compound 10.0 µM
[1] = biological target: CAMK2A (human) (UniProt Q9UQM7)
[2] = biological target: FYN (human) (UniProt P06241)
[3] = biological target: MAP3K9 (human) (UniProt P80192)
[4] = biological target: DDR2 (human) (UniProt Q16832)
[5] = biological target: FRK (human) (UniProt P42685)
FRK (human), sequence (P42685 whole entry, looked up): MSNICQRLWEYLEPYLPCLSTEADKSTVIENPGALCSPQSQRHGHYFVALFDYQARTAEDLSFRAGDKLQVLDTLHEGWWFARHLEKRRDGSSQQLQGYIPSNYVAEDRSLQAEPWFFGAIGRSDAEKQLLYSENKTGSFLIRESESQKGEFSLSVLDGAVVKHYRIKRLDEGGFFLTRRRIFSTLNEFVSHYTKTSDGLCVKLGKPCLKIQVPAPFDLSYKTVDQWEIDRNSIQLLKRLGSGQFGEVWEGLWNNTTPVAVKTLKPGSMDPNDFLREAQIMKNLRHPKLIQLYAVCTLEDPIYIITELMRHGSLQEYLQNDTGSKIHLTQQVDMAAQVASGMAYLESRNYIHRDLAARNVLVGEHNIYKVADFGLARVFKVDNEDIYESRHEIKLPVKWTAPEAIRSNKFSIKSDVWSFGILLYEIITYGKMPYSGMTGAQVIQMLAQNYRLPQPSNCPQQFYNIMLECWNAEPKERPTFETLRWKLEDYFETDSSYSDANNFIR

[6] = biological target: LIMK2 (human) (UniProt P53671)
LIMK2 (human), sequence (P53671 whole entry, looked up): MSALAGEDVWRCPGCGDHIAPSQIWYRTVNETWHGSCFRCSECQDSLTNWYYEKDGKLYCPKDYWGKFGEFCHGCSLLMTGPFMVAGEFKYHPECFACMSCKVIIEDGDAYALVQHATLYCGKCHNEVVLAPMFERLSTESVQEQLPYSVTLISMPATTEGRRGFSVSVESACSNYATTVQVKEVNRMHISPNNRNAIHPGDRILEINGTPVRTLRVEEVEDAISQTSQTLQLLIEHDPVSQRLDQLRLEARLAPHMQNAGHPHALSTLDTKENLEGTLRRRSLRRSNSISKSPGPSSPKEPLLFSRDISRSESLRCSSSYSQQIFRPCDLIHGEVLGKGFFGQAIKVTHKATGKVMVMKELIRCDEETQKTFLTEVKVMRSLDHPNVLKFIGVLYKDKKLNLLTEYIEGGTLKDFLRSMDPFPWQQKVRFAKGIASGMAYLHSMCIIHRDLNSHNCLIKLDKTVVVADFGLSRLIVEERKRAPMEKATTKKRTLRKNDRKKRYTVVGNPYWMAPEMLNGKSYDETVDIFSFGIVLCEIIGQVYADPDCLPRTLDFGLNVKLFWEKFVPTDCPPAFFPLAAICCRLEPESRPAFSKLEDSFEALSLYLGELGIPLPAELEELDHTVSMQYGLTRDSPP

[7] = biological target: SIK2 (human) (UniProt Q9H0K1)
SIK2 (human), sequence (Q9H0K1 whole entry, looked up): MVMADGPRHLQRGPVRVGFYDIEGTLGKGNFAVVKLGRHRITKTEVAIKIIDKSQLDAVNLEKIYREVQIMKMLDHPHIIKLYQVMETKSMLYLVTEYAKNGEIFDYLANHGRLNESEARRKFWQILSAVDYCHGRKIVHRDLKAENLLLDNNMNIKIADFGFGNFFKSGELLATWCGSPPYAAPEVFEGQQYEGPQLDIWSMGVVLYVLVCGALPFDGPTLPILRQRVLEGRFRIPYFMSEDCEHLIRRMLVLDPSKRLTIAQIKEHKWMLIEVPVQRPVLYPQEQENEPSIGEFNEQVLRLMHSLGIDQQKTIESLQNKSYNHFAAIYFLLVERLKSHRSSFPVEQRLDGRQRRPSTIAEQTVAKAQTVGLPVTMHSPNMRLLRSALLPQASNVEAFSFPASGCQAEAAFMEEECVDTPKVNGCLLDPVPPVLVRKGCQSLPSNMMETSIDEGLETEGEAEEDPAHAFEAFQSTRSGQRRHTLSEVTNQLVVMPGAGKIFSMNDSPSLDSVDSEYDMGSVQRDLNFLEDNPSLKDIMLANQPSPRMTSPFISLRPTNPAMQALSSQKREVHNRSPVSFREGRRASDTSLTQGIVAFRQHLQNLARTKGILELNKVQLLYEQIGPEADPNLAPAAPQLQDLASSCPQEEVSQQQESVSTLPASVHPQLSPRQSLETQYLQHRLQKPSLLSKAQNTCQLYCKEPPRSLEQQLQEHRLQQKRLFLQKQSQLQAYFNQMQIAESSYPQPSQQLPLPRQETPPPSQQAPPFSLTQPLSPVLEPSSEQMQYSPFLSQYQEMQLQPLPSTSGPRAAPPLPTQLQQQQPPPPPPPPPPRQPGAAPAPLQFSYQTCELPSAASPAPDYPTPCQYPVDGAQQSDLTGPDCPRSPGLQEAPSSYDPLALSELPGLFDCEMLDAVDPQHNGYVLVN

[8] = biological target: DCLK1 (human) (UniProt O15075)
[9] = biological target: MAP2K3 (human) (UniProt P46734)
[10] = biological target: PLK3 (human) (UniProt Q9H4B4)
[11] = biological target: MAPK14 (human) (UniProt Q16539)
[12] = biological target: PHKG2 (human) (UniProt P15735)
PHKG2 (human), sequence (P15735 whole entry, looked up): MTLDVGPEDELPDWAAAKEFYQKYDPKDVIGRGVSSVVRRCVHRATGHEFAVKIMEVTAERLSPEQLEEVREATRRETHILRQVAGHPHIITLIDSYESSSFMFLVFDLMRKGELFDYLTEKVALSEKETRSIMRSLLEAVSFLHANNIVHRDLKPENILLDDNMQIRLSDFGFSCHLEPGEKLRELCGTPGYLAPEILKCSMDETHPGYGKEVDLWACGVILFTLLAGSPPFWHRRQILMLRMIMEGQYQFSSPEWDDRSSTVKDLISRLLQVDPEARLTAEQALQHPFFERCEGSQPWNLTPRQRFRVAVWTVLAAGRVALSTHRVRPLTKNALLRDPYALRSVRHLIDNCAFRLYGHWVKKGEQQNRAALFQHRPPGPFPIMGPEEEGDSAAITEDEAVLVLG

[13] = biological target: ACVR2B (human) (UniProt Q13705)
ACVR2B (human), sequence (Q13705 whole entry, looked up): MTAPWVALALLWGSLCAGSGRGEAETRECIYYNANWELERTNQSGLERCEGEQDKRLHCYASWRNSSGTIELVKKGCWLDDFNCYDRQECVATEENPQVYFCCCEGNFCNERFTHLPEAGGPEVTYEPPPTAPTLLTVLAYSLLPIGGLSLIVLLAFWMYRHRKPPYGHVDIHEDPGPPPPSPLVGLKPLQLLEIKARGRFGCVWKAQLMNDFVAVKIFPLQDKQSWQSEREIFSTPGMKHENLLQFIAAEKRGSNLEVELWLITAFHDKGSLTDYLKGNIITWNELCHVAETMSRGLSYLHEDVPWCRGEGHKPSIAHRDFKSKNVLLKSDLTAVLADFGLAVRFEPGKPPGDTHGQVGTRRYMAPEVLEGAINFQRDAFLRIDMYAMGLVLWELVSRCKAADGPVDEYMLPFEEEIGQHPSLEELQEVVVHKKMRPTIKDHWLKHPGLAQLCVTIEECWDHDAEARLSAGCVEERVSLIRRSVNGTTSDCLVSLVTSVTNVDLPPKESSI

[14] = biological target: EPHA4 (human) (UniProt P54764)
[15] = biological target: RPS6KA5 KD2 (human) (UniProt O75582)
[16] = biological target: CSNK1A1L (human) (UniProt Q8N752)
[17] = biological target: TGFBR2 (human) (UniProt P37173)
[18] = biological target: CAMK2G (human) (UniProt Q13555)
[19] = biological target: FLT3 (human) (UniProt P36888)
[20] = biological target: CSF1R (human) (UniProt P07333)
CSF1R (human), sequence (P07333 whole entry, looked up): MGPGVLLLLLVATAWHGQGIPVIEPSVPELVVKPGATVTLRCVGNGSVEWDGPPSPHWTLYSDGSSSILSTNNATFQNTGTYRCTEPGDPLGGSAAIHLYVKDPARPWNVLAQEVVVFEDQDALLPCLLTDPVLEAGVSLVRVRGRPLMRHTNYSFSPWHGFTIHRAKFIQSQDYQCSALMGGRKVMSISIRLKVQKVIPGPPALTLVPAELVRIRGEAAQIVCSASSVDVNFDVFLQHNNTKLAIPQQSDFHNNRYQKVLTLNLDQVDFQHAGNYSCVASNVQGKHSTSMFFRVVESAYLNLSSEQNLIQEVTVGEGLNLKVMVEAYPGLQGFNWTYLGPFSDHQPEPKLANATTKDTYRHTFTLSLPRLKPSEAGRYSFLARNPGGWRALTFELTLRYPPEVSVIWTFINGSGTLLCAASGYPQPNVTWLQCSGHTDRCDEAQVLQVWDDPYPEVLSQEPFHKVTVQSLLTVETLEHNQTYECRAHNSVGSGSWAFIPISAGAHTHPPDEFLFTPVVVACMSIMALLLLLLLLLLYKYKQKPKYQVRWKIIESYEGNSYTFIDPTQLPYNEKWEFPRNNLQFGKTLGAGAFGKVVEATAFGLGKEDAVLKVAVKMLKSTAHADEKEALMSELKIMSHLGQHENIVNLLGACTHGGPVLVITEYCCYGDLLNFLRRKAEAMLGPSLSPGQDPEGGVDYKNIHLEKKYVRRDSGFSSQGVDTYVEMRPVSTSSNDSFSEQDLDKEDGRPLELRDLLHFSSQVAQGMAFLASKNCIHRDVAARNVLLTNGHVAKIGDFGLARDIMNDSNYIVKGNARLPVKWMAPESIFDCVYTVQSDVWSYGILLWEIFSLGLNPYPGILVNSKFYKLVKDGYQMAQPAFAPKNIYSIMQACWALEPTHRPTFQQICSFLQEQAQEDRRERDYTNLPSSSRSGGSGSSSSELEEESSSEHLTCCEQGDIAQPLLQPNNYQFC

[21] = biological target: MAPK7 (human) (UniProt Q13164)
[22] = biological target: INSRR (human) (UniProt P14616)
[23] = biological target: INSR (human) (UniProt P06213)
[24] = biological target: PKMYT1 (human) (UniProt Q99640)
[25] = biological target: HIPK1 (human) (UniProt Q86Z02)
[26] = biological target: BRSK1 (human) (UniProt Q8TDC3)
[27] = biological target: STK11 (human) (UniProt Q15831)
[28] = biological target: TLK1 (human) (UniProt Q9UKI8)
[29] = biological target: EPHA7 (human) (UniProt Q15375)
[30] = biological target: ULK2 (human) (UniProt Q8IYT8)
ULK2 (human), sequence (Q8IYT8 whole entry, looked up): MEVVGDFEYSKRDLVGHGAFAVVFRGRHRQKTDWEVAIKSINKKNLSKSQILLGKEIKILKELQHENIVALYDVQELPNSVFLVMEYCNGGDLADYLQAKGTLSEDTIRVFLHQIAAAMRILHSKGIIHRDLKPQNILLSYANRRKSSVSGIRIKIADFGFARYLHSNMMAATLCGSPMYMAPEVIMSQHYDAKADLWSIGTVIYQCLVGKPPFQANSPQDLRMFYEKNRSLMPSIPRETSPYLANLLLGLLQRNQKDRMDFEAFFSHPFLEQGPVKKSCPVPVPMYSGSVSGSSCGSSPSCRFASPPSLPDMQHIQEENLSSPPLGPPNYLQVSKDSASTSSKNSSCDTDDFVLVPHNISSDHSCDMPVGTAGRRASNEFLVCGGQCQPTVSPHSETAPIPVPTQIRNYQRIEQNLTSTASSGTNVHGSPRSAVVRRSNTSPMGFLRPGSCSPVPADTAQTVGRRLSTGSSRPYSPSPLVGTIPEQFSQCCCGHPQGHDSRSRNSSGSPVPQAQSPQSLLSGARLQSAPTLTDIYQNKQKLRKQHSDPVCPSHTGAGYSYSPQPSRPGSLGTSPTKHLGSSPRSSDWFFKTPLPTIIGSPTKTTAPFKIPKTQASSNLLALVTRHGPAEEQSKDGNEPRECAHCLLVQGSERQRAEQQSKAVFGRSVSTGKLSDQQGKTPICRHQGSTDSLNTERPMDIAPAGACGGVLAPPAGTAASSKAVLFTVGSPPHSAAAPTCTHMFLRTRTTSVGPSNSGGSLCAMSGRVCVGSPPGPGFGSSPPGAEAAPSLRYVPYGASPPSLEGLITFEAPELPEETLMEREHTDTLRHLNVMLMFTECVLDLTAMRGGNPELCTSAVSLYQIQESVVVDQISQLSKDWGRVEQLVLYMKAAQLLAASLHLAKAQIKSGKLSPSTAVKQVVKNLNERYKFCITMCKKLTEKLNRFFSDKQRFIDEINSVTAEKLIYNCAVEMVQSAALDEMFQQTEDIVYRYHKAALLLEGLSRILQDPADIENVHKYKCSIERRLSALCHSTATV

[31] = biological target: DAPK2 (human) (UniProt Q9UIK4)
[32] = biological target: ROCK2 (human) (UniProt O75116)
[33] = biological target: MAP3K7 (human) (UniProt O43318)
[34] = biological target: PRKACA (human) (UniProt P17612)
[35] = biological target: BMPR1A (human) (UniProt P36894)
[36] = biological target: CLK3 (human) (UniProt P49761)
[37] = biological target: AURKA (human) (UniProt O14965)
[38] = biological target: PAK7 (human) (UniProt Q9P286)
[39] = biological target: ADCK3 (human) (UniProt Q8NI60)
[40] = biological target: MAPK4 (human) (UniProt P31152)

Row | kinase still bound, per cent of control [1] | kinase still bound, per cent of control [2] | kinase still bound, per cent of control [3] | kinase still bound, per cent of control [4] | kinase still bound, per cent of control [5] | kinase still bound, per cent of control [6] | kinase still bound, per cent of control [7] | kinase still bound, per cent of control [8] | kinase still bound, per cent of control [9] | kinase still bound, per cent of control [10] | kinase still bound, per cent of control [11] | kinase still bound, per cent of control [12] | kinase still bound, per cent of control [13] | kinase still bound, per cent of control [14] | kinase still bound, per cent of control [15] | kinase still bound, per cent of control [16] | kinase still bound, per cent of control [17] | kinase still bound, per cent of control [18] | kinase still bound, per cent of control [19] | kinase still bound, per cent of control [20] | SMILES | further results
1 | 100% | 100% | 100% | 100% | 100% | 100% | 100% | 100% | 100% | 100% | 100% | 100% | 100% | 100% | 100% | 100% | 100% | 100% | 100% | 100% | Cn1c(=O)n(-c2ccc(C(C)(C)C#N)cc2)c2c3cc(-c4cnc5ccccc5c4)ccc3ncc21 | kinase still bound, per cent of control [21]: 100%; kinase still bound, per cent of control [22]: 100%; kinase still bound, per cent of control [23]: 100%; kinase still bound, per cent of control [24]: 100%; kinase still bound, per cent of control [25]: 100%; kinase still bound, per cent of control [26]: 100%; kinase still bound, per cent of control [27]: 100%; kinase still bound, per cent of control [28]: 100%; kinase still bound, per cent of control [29]: 100%; kinase still bound, per cent of control [30]: 100%; kinase still bound, per cent of control [31]: 100%; kinase still bound, per cent of control [32]: 100%; kinase still bound, per cent of control [33]: 100%; kinase still bound, per cent of control [34]: 100%; kinase still bound, per cent of control [35]: 100%; kinase still bound, per cent of control [36]: 100%; kinase still bound, per cent of control [37]: 100%; kinase still bound, per cent of control [38]: 100%; kinase still bound, per cent of control [39]: 100%; kinase still bound, per cent of control [40]: 100%
2 | 100% | 100% | 100% | 100% | 100% | 100% | 100% | 100% | 100% | 100% | 100% | 100% | 100% | 100% | 100% | 100% | 100% | 100% | 100% | 100% | OCCCNc1cc(-c2ccnc(Nc3cccc(Cl)c3)n2)ccn1 | kinase still bound, per cent of control [21]: 100%; kinase still bound, per cent of control [22]: 100%; kinase still bound, per cent of control [23]: 100%; kinase still bound, per cent of control [24]: 100%; kinase still bound, per cent of control [25]: 4.6%; kinase still bound, per cent of control [26]: 100%; kinase still bound, per cent of control [27]: 100%; kinase still bound, per cent of control [28]: 100%; kinase still bound, per cent of control [29]: 100%; kinase still bound, per cent of control [30]: 100%; kinase still bound, per cent of control [31]: 100%; kinase still bound, per cent of control [32]: 100%; kinase still bound, per cent of control [33]: 100%; kinase still bound, per cent of control [34]: 100%; kinase still bound, per cent of control [35]: 100%; kinase still bound, per cent of control [36]: 100%; kinase still bound, per cent of control [37]: 100%; kinase still bound, per cent of control [38]: 100%; kinase still bound, per cent of control [39]: 100%; kinase still bound, per cent of control [40]: 100%

Row | SMILES | kinase still bound, per cent of control [1] | kinase still bound, per cent of control [2] | kinase still bound, per cent of control [3] | kinase still bound, per cent of control [4] | kinase still bound, per cent of control [5] | kinase still bound, per cent of control [6] | kinase still bound, per cent of control [7] | kinase still bound, per cent of control [8] | kinase still bound, per cent of control [9] | kinase still bound, per cent of control [10] | kinase still bound, per cent of control [11] | kinase still bound, per cent of control [12] | kinase still bound, per cent of control [13] | kinase still bound, per cent of control [14] | kinase still bound, per cent of control [15] | kinase still bound, per cent of control [16] | kinase still bound, per cent of control [17] | kinase still bound, per cent of control [18] | kinase still bound, per cent of control [19] | kinase still bound, per cent of control [20] | further results
3 | N#Cc1c(NC(=O)c2cccc3ccccc23)sc2c1CCCC2 | 92% | 63% | 72% | 100% | 58% | 100% | 78% | 100% | 88% | 100% | 100% | 83% | 67% | 100% | 95% | 66% | 100% | 94% | 94% and 87% | 100% and 84% | kinase still bound, per cent of control [21]: 96%; kinase still bound, per cent of control [22]: 100%; kinase still bound, per cent of control [23]: 100%; kinase still bound, per cent of control [24]: 77%; kinase still bound, per cent of control [25]: 91%; kinase still bound, per cent of control [26]: 100%; kinase still bound, per cent of control [27]: 81%; kinase still bound, per cent of control [28]: 76%; kinase still bound, per cent of control [29]: 84%; kinase still bound, per cent of control [30]: 98%; kinase still bound, per cent of control [31]: 91%; kinase still bound, per cent of control [32]: 100%; kinase still bound, per cent of control [33]: 82%; kinase still bound, per cent of control [34]: 78%; kinase still bound, per cent of control [35]: 96%; kinase still bound, per cent of control [36]: 72%; kinase still bound, per cent of control [37]: 100%; kinase still bound, per cent of control [38]: 100%; kinase still bound, per cent of control [39]: 100%; kinase still bound, per cent of control [40]: 90%
